One assay addresses soluble hamster vimentin (Mesocricetus auratus, UniProt P02544). The assay can be described thus: In vitro ligand binding assay (WFA-B labelling, streptavidin-HRP blot). Particulars: competitor 1 hour, then 0.3 or 1 μM WFA-B 1 hour. An excerpt:
The proteins were fractionated by SDS-PAGE, blotted and biotinylated adduct was detected by streptaviding-HRP with chemiluminescence.

The target of assay [1] is T1, tetrameric soluble hamster vimentin (Mesocricetus auratus, UniProt P02544).
T1 construct: purchased Vimentin Filament Biochemistry Kit, Denver, Colo; Cytoskeleton is named
T1 sequence (P02544 2-465 limits assumed): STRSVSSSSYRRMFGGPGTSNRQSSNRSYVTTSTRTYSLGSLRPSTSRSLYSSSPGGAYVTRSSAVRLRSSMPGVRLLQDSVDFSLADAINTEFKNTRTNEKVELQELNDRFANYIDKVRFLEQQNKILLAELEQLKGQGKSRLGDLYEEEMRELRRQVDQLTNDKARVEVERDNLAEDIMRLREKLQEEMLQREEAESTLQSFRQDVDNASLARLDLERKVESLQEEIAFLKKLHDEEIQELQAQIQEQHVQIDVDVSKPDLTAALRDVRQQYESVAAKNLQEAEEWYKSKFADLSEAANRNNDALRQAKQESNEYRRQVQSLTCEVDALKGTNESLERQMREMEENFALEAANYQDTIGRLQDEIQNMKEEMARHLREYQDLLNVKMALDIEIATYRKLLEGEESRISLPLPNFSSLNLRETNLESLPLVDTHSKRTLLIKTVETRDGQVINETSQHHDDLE
Kind of assay: In vitro vimentin filament polymerization (transmission electron microscopy). The format is biochemical. Particulars: 25 μM, 170 mM NaCl, 1 hour at 37° C. The protocol: FIG. 3a depicts tetrameric soluble hamster vimentin polymerized in the presence of 170 mM NaCl by incubation at 37° C. for 1 hour. The protein was fixed with 0.5% glutaraldehyde, stained with uranyl acetate and observed by transmission electron microscopy.
Tetrameric hamster vimentin was subjected to in vitro filament formation assays using vendor-supplied reagents and instructions (Vimentin Filament Biochemistry Kit, Denver, Colo.). Vimentin (0.5 mg/ml) was mixed with WFA (5 μM or 25 μM), DMSO or 12D-WS (25 μM) in filament polymerization buffer (170 mM NaCl final concentration) and incubated for 1 hour at 37° C. Protein was immediately fixed in 0.5% glutarldehyde and stained with uranyl acetate and applied to copper grids for EM staining (University of Kentucky Core Microscopy and Imaging Facilities). Over 100 grids for each treatment were viewed at 80 kV on a FEI Biotwin 12 transmission electron microscope and 25 representative images were collected. The experiment was repeated in entirety.

In assay [2] the test system is corneal neovascularization. Kind of assay: Injury-induced corneal neovascularization assay in mice. It is filed as in vivo, mouse. Particulars: 2 mg/kg i.p. daily for 10 days. An excerpt:
Since WFA exerts potent angiogenesis inhibitory activity in vivo, drug activity on de novo capillary growth in vimentin deficiency was investigated.
Vimentin homozygous-deficient mice (vim^−/−) and vimentin-heterozygous-deficient mice (vim^+/−) in the 129/Svev background were obtained from David Markovitz (University of Michigan Medical Center) and breeding colonies established at the University of Kentucky. All mice were housed in specific pathogen-free cages in designated lab animal housing facilities. Age-matched littermates were genotyped by polymerase chain reaction, as described, and vim^−/− and vim^+/+ mice were employed for corneal vascularization experiments. In brief, mice between 4-6 weeks of age were anesthetized by intraperiteoneal injection (i.p.) of ketamine and xylazine. Corneas were topically anesthetized by application of proparacain drop and 1 microliter drop of dilute 0.1 M sodium hydroxide was applied for 1 minute. […] Upon recovery from anesthesia, mice were replaced in cages and monitored by trained personnel for resumption of normal activity. […] Fluorescence was quantified by importing images in NIH ImageJ, as taught by Ambati, B. K. et al., Sustained inhibition of corneal neovascularization by genetic ablation of CCR5, Invest. […]

For another assay, the system named is BAECs. The assay can be described thus: Immunostaining of vimentin and actin in BAECs. Particulars: 3 μM, 18 hours. It is filed as cell-based, bovine. The protocol: (§1) BAECs treated with DMSO (FIGS. 3e, 3g, 3i) or 3 μM WFA (FIGS. 3f, 3h, 3j) for 18 hours were stained for vimentin using a monoclonal anti-vimentin antibody (green) and co-stained with phalloidin-rhodamine (red). The vimentin (FIGS. 3e, 3f) and phalloidin-stained images (FIGS. 3g, 3h), in fluorescence overlap, reveal the presence of numerous cytoplasmic particulate granules that co-stain for vimentin and disrupted F-actin in WFA-treated cells compared to controls (FIGS. 3i, 3j). […] FIG. 3l depicts higher concentrations and longer periods of exposure to WFA (4 hours) cause reduction in levels of the 56 kDa protein (asterisk) and increased abundance of cleavage products of vimentin (arrows).
To further corroborate that vimentin aggregation by WFA treatment is associated with perturbation of the cytoskeleton structure, the drug effects in BAECs were investigated by immunostaining. […] Importantly, these vimentin particulates strongly co-stain for actin (compare FIG. 3h with FIG. 3j), exemplifying the role of the WFA-binding domain in control of cytoskeletal structure through the actin-binding activity of vimentin 2B domain.
After treatments, BAECs were washed with PBS and fixed with 4% paraformaldehyde for 5 minutes. Cells were then permeabilized with 0.1% Triton-X in PBS for 20 minutes at 4° C. and blocked for 30 minutes in 3% BSA to prevent nonspecific binding. […]

The subject of assay [3] is embryonic fibroblast cell lines MFT-6 (Vim+/+) and MFT-16 (Vim−/−). The assay can be described thus: Apoptosis by flow cytometry (annexin V-FITC / propidium iodide). It is filed as cell-based, mouse. Particulars: 5 μM, 24 hours. The protocol:
Referring to FIG. 4c, embryonic fibroblast cell lines derived from vimentin-deficient mice and wild-type littermates were treated with vehicle or 5 μM WFA for 24 hours. Cells were harvested and stained with annexin V-FITC and propidium iodide and extent of apoptosis assessed by flow cytometry. The fold-apoptotis for drug over vehicle-treated samples for each cell line was plotted (n=2 experiments).
To assess the apoptosis activity of WFA, embryonic fibroblast vimentin-deficient cell lines (Vim^−/−; MFT-16) and wild-type (Vim^+/+; MFT-6) cells were treated with 5 μM WFA or an equivalent amount of vehicle (DMSO) for 24 hours at 37° C.-5% CO2 conditions in complete medium. Apoptotic cells were measured by using the VYBRANT™ Apoptosis Assay Kit (Molecular Probes) according to the manufacturer's instructions. Flow cytometric analysis was conducted at the University of Kentucky Core Flow Cytometry Center.

The next assay deals with vimentin in HUVECs. Kind of assay: Western blot of soluble vimentin in WFA-treated HUVECs. The format is cell-based, human. The protocol:
as §1
As it became apparent that vimentin targeting by WFA may initiate signaling events leading to cellular apoptosis, the effect of WFA on soluble tetrameric vimentin was investigated. Using western blot analysis of soluble proteins from HUVECs treated with WFA, dose-dependent (above 2 μM) increases in vimentin cleavage products became detectable by 2 hours after drug treatment (FIGS. 3k and 3l).
After treatments, cells were washed in PBS and extracts having equal amounts of proteins were subjected to SDS-PAGE on 4-20% Tris-glycine gels (BioEpress) and transferred to Immun-Blot PVDF membrane (Bio-Rad) using standard techniques. […]
A general note: Immunoblotting shows a protein as a band on a membrane.

Assay [4] deals with MCF-7 cells transfected with human vimentin cDNA. Kind of assay: Polyubiquitinated proteins in vimentin-transfected MCF-7 cells (anti-ubiquitin blot). Particulars: 2 μM, not in vector controls. The format is cell-based. The protocol:
Employing the widely used MCF-7 vimentin-deficient model of Bar, H. et al., Forced expression of desmin and desmin mutants in cultured cells: impact of myopathic missense mutations in the central coiled-coil domain on network formation, Exp. Cell. […] MCF-7 cells that lack endogenous IF proteins were transfected with human vimentin cDNA or a vector control and after 24 hours cells were treated with either vehicle or 2 μM WFA for 1 hour. Cell lysates were prepared and equal amounts of protein subjected to SDS-PAGE and protein blots probed with anti-ubiquitin antibody. Blots were re-probed with anti-GAPDH antibody.
MCF-7 cells were transfected with a pCMV6-XL5 vector containing the human vimentin cDNA under CMV promoter according to vendor instructions (Origene). Control samples were transfected with an empty vector (PCMV6-XL4). Transfected cells were allowed to recover for 12 hours and subsequently treated with 2 μM WFA for 18 hours. Equal amounts of protein lysates were then subjected to western blotting and probed with mouse monoclonal antibody against ubiquitin proteins.

The target in another assay is bovine 20S proteasome (Bos taurus, UniProt Q32KL2). The assay can be described thus: 20S proteasome enzyme kinetic assay (chymotrypsin-like activity, Suc-LLVY-AMC). The format is biochemical. The protocol:
The chymotrypsin-like activity was assayed using the fluorogenic peptide substrates Suc-Leu-Leu-Val-Tyr-AMC (Sigma-Aldrich). […] Fluorescence was quantified as arbitrary units and progression curves were plotted for each reaction as a function of time. kobserved/[I] values were obtained using PRISM program by nonlinear least squares fit of the data to the following equation: fluorescence=vst+[(v0−vs)/kobserved][1−exp(−kobserved t)], where v0 and vs are the initial and final velocities, respectively, and kobserved is the reaction rate constant. […] Reactions were performed using inhibitor concentrations that were <100-fold of those of the proteasome assayed.

Assay [5] deals with purified hamster vimentin (Mesocricetus auratus, UniProt P02544). The assay can be described thus: LC-MS/MS mapping of the residue covalently modified by WFA. The format is binding. Particulars: tryptic digestion, molecular mass shift of 470. The protocol: Next, to identify the amino acid residue(s) of vimentin covalently modified by WFA, purified hamster vimentin was incubated with WFA and the protein-ligand complexes subjected to tryptic digestion and LC-MS/MS analysis. […] A three-dimensional model of the WFA-vimentin complex was developed using x-ray crystal structures of vimentin and WFA. […] In this simulated model, the C3 and C6 carbons of WFA lie in close proximity to the cysteine residue in the vimentin A-helix (FIG. 2b), permitting a nucleophilic attack by this thiol group on the electrophilic carbon centers (FIG. 2c). Remarkably, the amino acid residues of vimentin (Gln324, Cys328 and Asp 331) that make contact with WFA (FIG. 2c) are identical from fish to mammals, as shown in the table below.
Chain of purified hamster vimentin (P02544 whole entry): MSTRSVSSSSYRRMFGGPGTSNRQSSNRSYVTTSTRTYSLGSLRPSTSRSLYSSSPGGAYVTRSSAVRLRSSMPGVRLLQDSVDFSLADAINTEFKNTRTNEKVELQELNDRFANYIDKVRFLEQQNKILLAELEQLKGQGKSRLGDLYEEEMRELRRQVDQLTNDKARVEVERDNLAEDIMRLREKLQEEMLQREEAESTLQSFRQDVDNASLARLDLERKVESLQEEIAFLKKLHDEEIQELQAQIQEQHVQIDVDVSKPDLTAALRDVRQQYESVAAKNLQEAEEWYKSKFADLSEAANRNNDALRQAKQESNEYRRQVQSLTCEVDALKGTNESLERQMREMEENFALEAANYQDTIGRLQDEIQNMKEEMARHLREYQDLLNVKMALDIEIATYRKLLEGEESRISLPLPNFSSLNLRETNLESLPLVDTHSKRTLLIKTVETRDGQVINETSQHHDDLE

The target of assay [6] is T2, 56 kDa protein (vimentin) in HUVECs (Homo sapiens, UniProt P08670).
T2 construct: host or cells: HUVECs
T2 sequence (P08670 whole entry): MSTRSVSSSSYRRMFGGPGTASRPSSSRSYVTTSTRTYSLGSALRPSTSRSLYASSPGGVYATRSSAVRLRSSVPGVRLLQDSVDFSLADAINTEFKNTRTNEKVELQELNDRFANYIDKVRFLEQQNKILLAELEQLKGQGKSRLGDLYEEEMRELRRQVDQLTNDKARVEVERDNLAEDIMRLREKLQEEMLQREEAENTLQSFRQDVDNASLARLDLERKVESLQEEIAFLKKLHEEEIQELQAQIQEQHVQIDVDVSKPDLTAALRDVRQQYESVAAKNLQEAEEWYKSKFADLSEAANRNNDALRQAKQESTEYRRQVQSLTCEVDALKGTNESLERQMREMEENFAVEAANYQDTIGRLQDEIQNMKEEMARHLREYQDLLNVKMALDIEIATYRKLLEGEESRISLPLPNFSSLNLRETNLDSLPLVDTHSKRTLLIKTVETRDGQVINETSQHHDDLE
Kind of assay: WFA-B labelling of proteins in HUVECs (streptavidin-HRP blot). It is filed as binding. Particulars: WFA-B 2 hours, WFA-competitive. The protocol: LC-MS/MS characterization of this protein identified the 56 kDa protein as vimentin (27% protein coverage), an IF protein that is abundant in mesenchymal cells. To further support that vimentin is bound by WFA-B in vivo, HUVECs were treated with WFA-B in the presence and absence of unconjugated WFA, and total cellular lysates were gel-fractionated and protein blots probed with streptavidin-HRP. […] This experiment was conducted using cells preincubated with DMSO or WFA for 30 minutes and subsequently with WFA-B for 2 hours. Soluble proteins extracted in 1% Triton X-100 were fractionated by SDS-PAGE and blotted. This blot, as well as those of FIGS. 1d and 1e, were developed with Streptavidin-HRP. Biotin label is incorporated in this 56 kDa protein in a WFA-competitive manner.
As shown in the blot of FIG. 1d, WFA-B binds vimentin in HUVECs. The blot of FIG. 1d was produced using cell cultures preincubated with DMSO (Veh) or with 5 μM WFA or 1 μM (WFA*) for 30 minutes and subsequently with 5 μM WFA-B for 2 hours.

Chain of soluble hamster vimentin (P02544 whole entry): as the sequence (P02544 whole entry) above

As to `CC1=C(CO)C(=O)O[C@@H]([C@@H](C)[C@H]2CC[C@H]3[C@@H]4[C@@H]5O[C@@H]5[C@@]5(O)CC=CC(=O)[C@]5(C)[C@H]4CC[C@]23C)C1` [12-D WS], the “in vitro binding to vimentin” value at soluble hamster vimentin is given as “lack of in vitro binding activity”. Also, in assay [1], the “effect on vimentin polymerization” value is recorded as “does not disrupt vimentin polymerization”.

With `CC1=C(CO)C(=O)O[C@@H]([C@@H](C)[C@H]2CC[C@H]3[C@@H]4C[C@H]5O[C@]56[C@@H](O)C=CC(=O)[C@]6(C)[C@H]4CC[C@]23C)C1` [WFA, Withaferin A], the inhibition of neovascularization was determined as 29% in assay [2] (vimentin-null mice, n=10, P=0.005) and 73% in [2] (wild-type mice, n=8, P=0.002). Moreover, the “effect on vimentin polymerization” value in [1] was “produces extensive filamentous aggregates”. For the same compound, in the assay with BAECs, the vimentin filament phenotype entry is given as “condensation of vimentin filaments around the perinuclear region”. Besides, the “rate of apoptosis, wild-type cells versus vimentin-deficient cells” value in assay [3] came out at 7 fold. The “concentration giving dose-dependent increases in vimentin cleavage products” value in the assay with vimentin in HUVECs (detectable by 2 hours) is recorded as “above 2 μM”. Also, in assay [4], the “levels of polyubiquitinated proteins” value is “increases levels of polyubiquitinated proteins”. At bovine 20S proteasome (10 μM), the “inhibition of the 20S proteasome's major catalytic function” value is on record as “minimally inhibits”. The “Kobs/[I], efficiency of inactivation” value on bovine 20S proteasome (WFA 0.5-10 μM, epoxomicin 10-75 nM) was determined as 340±80 M^−1S^−1. The “covalent modification of cysteine residue at position 327” value in assay [5] is given as “uniquely modified by WFA”.

As for `CC1=C(COC(=O)CNC(=O)CCCCCNC(=O)CCCCCNC(=O)CCCCC2SCC3NC(=O)NC32)C(=O)OC([C@@H](C)C2CCC3C4C[C@H]5O[C@]56C(O)C=CC(=O)[C@]6(C)C4CC[C@@]32C)C1` (stereo partly drawn) [WFA-B, WFA-Gly-LC-LC-biotin], the “binding to 56 kDa protein in cells” value in assay [6] was “binds to the 56 kDa protein in HUVECs”. In addition, at soluble hamster vimentin, the “in vitro binding to vimentin” value is given as “bound by WFA-B in a WFA-competitive manner”. Also, the “effect on full-length vimentin isoforms (two-dimensional western blot)” value in the assay with vimentin in HUVECs (data not shown) was “causes several full-length (˜53-56 kDa) isoforms of vimentin to disappear”.

The record behind these values is US8735178B2, “Withanolides, probes and binding targets and methods of use thereof” (University of Kentucky Research Foundation, priority 2006, dated 2014).
